According to US4347176A, “Compounds and methods of making same” (Burroughs Wellcome Co., priority 1980, dated 1982):

What was measured:
[1] = test system: antisera raised by presenting a suitable bupropion variant-carrier material conjugate to the immune system of host animals; test: competition of bupropion with radiolabeled competitor for binding to antisera; parameters: species or system rabbit
Protocol: (§1) Samples of six standard solutions of bupropion in blank plasma having concentrations of 0.39 to 50 ng/ml) are pipetted (0.1 ml each) in duplicate into 12×75 mm plastic tubes. Duplicate non-specific binding (no antibody) and maximum binding tubes (no unlabeled bupropion) receive 0.1 ml blank plasma. Spiked plasma controls at several concentrations of (e.g., 1.0, 10.0, and 100 ng/ml) and plasma samples for assay (diluted into the standard range with blank plasma if necessary) are assayed in duplicate. After being placed in an ice bath, all tubes receive (in order) 0.2 ml ^3 H bupropion (416 pg. containing approximately 10^4 cpm) and 0.7 ml anti-bupropion serum (raised to a ring-functionalized immunogen according to the present invention) (at pre-determined dilutions such that approximately 40% of the ^3 H bupropion added is bound), both in assay buffer (0.05 M phosphate-bufferedisotonic saline, containing 0.01 M EDTA and 0.1% gelatin, pH 7.0). […] The supernatants, containing antibody-bound ^3 H bupropion are carefully decanted into liquid scintillation cocktail for quantitation of ^3 H. After counts (minus average nonspecific binding cpm) are expressed as percentages of average maximum binding cpm, bupropion concentrations in plasma samples and spiked controls are read from a standard curve (log concentration vs percent average maximum binding).

anti-compound 1 sera = test: RIA of bupropion using 125I-labeled competitor with anti-compound 1 sera: sensitivity; format: binding, rabbit (preferred host animal); settings: in conjunction with anti-compound 1 sera; compared with the other iodinated competitors, FIG. 2
Protocol: as §1, with “binding). […]” for “binding).”

[2] = test system: anti-compound 2 sera, and anti-compound 3 sera; test: RIA of bupropion using 125I-labeled competitors with anti-compound 2 sera and anti-compound 3 sera: sensitivity; format: binding, rabbit (preferred host animal); settings: with either anti-compound 2 or anti-compound 3 sera; standard curves, FIG. 2
Protocol: as §1, with “7.0). Non-specific binding tubes receive 0.7 ml assay buffer.) Following incubation either at 25° C. for 2 hours or overnight at 4° C., bound and free ^3 H bupropion are separated by incubation for 10 min at 0° C. with 0.5 ml ice-cold dextran-coated charcoal solution (0.25% dextran, 5 mg/ml charcoal, in assay buffer) followed by centrifugation for 10 minutes at 4° C.” for “7.0).”
RIA's have been run according to the method of Example X utilizing ^125 I labeled bupropion competitors of the present invention in conjunction with antisera obtained following immunization with immunogens of the present invention. […] Following the ethanol precipitation of antibody-bound ^125 I-bupropion competitor at equilibrium, ^125 I in the protein pellets was quantified.

| Structure (SMILES) | RIA sensitivity relative to the compound 10 (3H bupropion) assay system [2] | also measured |
| --- | --- | --- |
| CC(NC(C)(C)C)C(=O)c1cccc(Cl)c1 (racemic) [bupropion, (±)-2-tert-butylamino-3'-chloropropiophenone] |  | competition with radiolabeled bupropion or competitor for binding to antisera [1]: successfully compete |
| CC(NC(C)(C)C)C(=NOCC(=O)NCCc1ccc(O)c([125I])c1)c1cccc(Cl)c1 (stereo not drawn) [Compound 6, α-t-Butylamino-3-chloropropiophenone-carboxymethyloxime-^125 I-tyramine amide] |  | RIA sensitivity (anti-compound 1 sera): least sensitive RIA |
| CC(NC(C)(C)C)C(=O)c1ccc(OCC(=O)NCCc2ccc(O)c([125I])c2)c(Cl)c1 (stereo not drawn) [Compound 7, α-t-Butylamino-3-chloro-4-carbomethoxypropiophenone-^125 I-tyramine amide] | sensitivity approximately equal |  |
| CC(NC(C)(C)C)C(=O)c1ccc(CCCOC(=O)CCC(=O)NCCc2ccc(O)c([125I])c2)c(Cl)c1 (stereo not drawn) [Compound 8, α-t-butylamino-3-chloro-4-γ-hydroxypropylpropiophenonehemisuccinate-^125 I-tyramine amide] | sensitivity approximately equal |  |
| CC(NC(C)(C)C)C(=O)c1ccc(O)c([125I])c1 (stereo not drawn) [Compound 9, ^125 I-α-t-Butylamino-3-iodo-4-hydroxypropiophenone] | approximately ten times more sensitive |  |
